The text below walks through data of a melting point compilation (Tetko et al.; mined from patent text by program, amines drawn as free bases though some values may be those of a salt).

`COc1ccccc1NC(=O)Nc1nc(Nc2ccccc2-c2ccccc2)nc(N(CCC(=O)O)CCc2ccccn2)n1` came in with a melting point of 225 to 227 °C.

For `CCOc1nn(CCOc2c(CC)cccc2CC(=O)O)cc1C(=O)NCc1ccc(Cl)cc1Cl`, the melting point was in the range of 129 to 131 °C.

The compound `Nc1nc2c(Oc3cc(-c4ccc(C(F)(F)F)cc4)ncn3)cccc2s1` had a melting point of 232 to 234 °C.

`CC1CN(c2cc3c(c(N)c2F)c(=O)c(C(=O)O)cn3C2CC2)CCN1` (stereo not drawn) returned a melting point of 181 to 183 °C.

Consider `CCOC(CI)=Nc1ccc(Cl)cc1C(=O)c1ccccc1`, for which the melting point lay in the range of 67 to 68 °C.

Consider `Cn1c(=O)c(-c2ccccc2Cl)cc2cnc(NC3C4CN(C(=O)Nc5ccc(CC(=O)O)cc5)CC43)nc21` (stereo not drawn), for which the melting point was in the range of 190 to 197 °C.

For `CC(C)(C)OC(=O)N1CCN(c2[nH]nc(-c3ccc(Cl)cc3)c2-c2ccncc2)CC1`, the melting point was in the range of 204 to 205 °C.

`O=C(O)Cn1nc(Br)nc1Br` displayed a melting point of 147 to 152 °C.

For `Cc1cc(-c2cc(C(=O)O)c(=O)n(Cc3ccccc3Cl)n2)ccc1F`, the melting point is 185 to 186 °C.

`Nc1nc2ccccc2c2c1ncn2CCOCCCc1nccs1` came in with a melting point of 134 to 135 °C.

Regarding `COc1ccc(C2(C#Cc3cccc(NC(=O)C(F)(F)F)c3)CCCC(=O)C2)cc1OC1CCCC1` (stereo not drawn), the melting point lay within 63 to 65 °C.

As to `COc1ccc(-c2ccc(C(N)=O)cc2)cc1OCCCCc1ccccc1`, the melting point fell in the range of 180 to 182 °C.

`CCOC(=O)c1ccc(S(=O)(=O)Oc2c(-c3ccccc3)cc(C(=O)c3ccccc3)cc2-c2ccccc2)cc1O` gave a melting point of 75 to 85 °C.

With `Cc1cc(C(F)(F)F)nc(N(C(N)=O)c2ccccc2C(F)(F)F)n1`, the melting point is 150 to 153 °C.

In turn, `O=C(CCCN1C(=O)c2ccccc2C1=O)N1CCCC2=C1CCc1cc(Cl)ccc12` registered a melting point of 182 to 183 °C.

As for `CCCNc1cn(-c2cccnc2)nc1Cl`, the melting point lay within 92 to 94 °C.

`CCOCCn1c(C)c(C2(c3ccc(N(CC)CC)cc3CC)OC(=O)c3ccccc32)c2ccccc21` (stereo not drawn) registered a melting point of 156 to 158 °C.

For `O=C(C=Cc1ccccn1)N1CCc2c([nH]c3ccccc23)C1c1ccc2c(c1)OCO2` (stereo not drawn), the melting point is 135 to 141 °C.

In turn, `CN(C)C=Nc1ncc2cc(-c3c(Cl)cccc3Cl)c(N=CN(C)C)nc2n1` yielded a melting point of 269 to 272 °C.

For `Cc1cc(-c2cnn3c(C(F)(F)F)cc(-c4cccc(C(F)(F)F)c4)nc23)ccn1`, the melting point amounted to 232 °C.

With `CC(=O)Nc1ccc(-c2ccccc2)cc1[N+](=O)[O-]`, the melting point fell in the range of 128 to 131 °C.

For `COC(=O)c1sc2nc(C)c(Cl)c(=O)n2c1C`, the melting point was in the range of 140 to 141 °C.

Compound `O=C1c2ccccc2C(=O)N1n1cccc1-c1ccccc1` displayed a melting point of 168 to 170 °C.

`O=[N+]([O-])c1ccccc1Sc1ncc[nH]1`: the melting point fell in the range of 137 to 138 °C.

`C=CCc1cc(C2=NNC(=O)CC2)ccc1OCC(O)CNC(C)C` (stereo not drawn) registered a melting point of 94 to 96.5 °C.

The compound `COc1ccc(S(=O)(=O)N2C(=O)C(O[Si](C)(C)C)(c3ccccc3OC)c3cc(Cl)c(C)cc32)c(OC)c1` (stereo not drawn) returned a melting point of 190 to 191 °C.

Turning to `C=CC1=CC=C(OC)C(OC)([N+](=O)[O-])C1` (stereo not drawn), the melting point lay within 140 to 141 °C.

Consider `O=C(Cc1ccc(F)cc1)NC1CCN(Cc2ccc(Br)cc2)CC1`, for which the melting point worked out at 144 °C.

Compound `Cc1[nH]c(=S)n(Nc2ccc(Cl)cc2)c1-c1ccccc1` came in with a melting point of 212 to 214 °C.

As to `O=c1ccc(S(=O)(=O)n2cc(Cl)c3ccccc32)n[nH]1`, the melting point was over 220 °C.

Compound `O=C1CSc2nc(C34CC5CC(CC(C5)C3)C4)cn21` yielded a melting point of 130 to 132 °C.

The compound `Fc1ccc(C2C=C(C(F)(F)F)NC3=C2SCC=C3)cc1Br` (stereo not drawn) showed a melting point of 195 to 198 °C.

On to `Cc1c(C(=O)O)ccc(Cl)c1O`, for which the melting point worked out at 191 °C.

Turning to `NC(=S)NN=C(CNC(=O)Cc1ccccc1)c1ccccc1`, the melting point was in the range of 170 to 172 °C.

Compound `OC(CN1CCN(c2ccncc2)CC1)c1ccc2nonc2c1` (stereo not drawn) showed a melting point of 159 to 162 °C.

Regarding `CC#CCOc1cc(Cc2cccc(F)c2)ncn1`, the melting point worked out at 51.5 °C.

For `CC(=O)Nc1ccc(C2CN(C)Cc3c(Cl)cc(Cl)cc32)cc1` (stereo not drawn), the melting point is 205 to 206 °C.

Regarding `COC(=O)[C@H](CC(C)C)NC(=O)OCC1c2ccccc2-c2ccccc21`, the melting point fell in the range of 86 to 87 °C.

The compound `Clc1cc(Cl)c2cccc3c2c1N=C3NCCCn1ccnc1` showed a melting point of 182 to 183 °C.

Consider `COc1cc(Sc2ccccc2CCl)ccc1Cl`, for which the melting point was 57 to 59 °C.

`N#Cc1nc(Cl)ccc1N` showed a melting point of 162 to 165 °C.

`COc1cc2ncc(C#N)c(Cl)c2cc1OC` yielded a melting point of 220 to 223 °C.

The compound `C=Cc1ccc2nc(-c3ccccc3)c(-c3ccccc3)nc2c1` gave a melting point of 122 to 123 °C.

`CCn1cc(C(=O)O)c(=O)c2ccc(Cl)c(C)c21` displayed a melting point of 221 to 222 °C.

`Nc1ncc2c(n1)-c1sc(N)nc1CC2` came in with a melting point of 293 to 300 °C.

On to `COc1ccc(-c2ccc3n[nH]c(=O)n3n2)cc1F`, for which the melting point fell in the range of 289 to 290 °C.

`Cn1c(=O)c(-c2c(Cl)cccc2Cl)cc2cnc(S(C)(=O)=O)nc21` came in with a melting point of over 290 °C.

`CC1=C(C(=O)O)C(c2cccc(Cl)c2Cl)C(c2nnco2)=C(C)N1` (stereo not drawn): the melting point lay in the range of 187 to 190 °C.

Compound `Fc1ccc(-n2cc(OCCN3CCCCC3)c3cc(Cl)ccc32)cc1` returned a melting point of 82 to 84 °C.

In the case of `COC(=O)C=Cc1ccc(Cl)c([N+](=O)[O-])c1`, the melting point was determined as 107 °C.

In the case of `CC(=O)OC1CSC(Oc2cncc(-c3cccs3)c2)C(OC(C)=O)C1OC(C)=O` (stereo not drawn), the melting point amounted to 166 °C.

For the compound `CCCc1cc(=O)oc2cc(OCCCN3CCN(c4ccccc4)CC3)ccc12`, the melting point lay within 114 to 116 °C.

Regarding `COC(=O)c1coc(-c2ccc(NS(=O)(=O)c3sc4ccc(F)cc4c3C)c(S(C)(=O)=O)c2)n1`, the melting point lay in the range of 290 to 292 °C.

In turn, `Cc1cccc2c1CCN(C1CN3CCC1CC3)C2=O` (racemic) returned a melting point of over 270 °C.

`CC(C)CC(=O)Nc1cccc(-c2ccnc3c(-c4cccc(N(C)C)c4)cnn23)c1` came in with a melting point of 182 to 184 °C.

In turn, `CC1CC2=CC(=O)CCC2C2C(F)CC3(C)C(OCc4ccc(S(N)(=O)=O)cc4)CCC3C12` (stereo not drawn) returned a melting point of 232 °C.

The compound `CN1C(=O)Cn2c(-c3ccccc3)nnc2-c2cc(Cl)ccc21` gave a melting point of 204 to 206 °C.

Compound `C[C@H](O)[C@@H](Nc1ccc(C#N)c(Cl)c1Cl)c1nnc(-c2ccccc2)o1` gave a melting point of 156 °C.

`CS(=O)(=O)N[C@@H]1CCCC[C@H]1Nc1nc(Nc2ccc3c(c2)CN(CCO)CCS3)ncc1Cl` had a melting point of 76 to 86 °C.

For the compound `COC(=O)c1ccc2c(OC)ccnc2c1`, the melting point lay within 147 to 148 °C.

In turn, `Cc1nc2c(s1)C(=O)c1ccccc1C2=O` had a melting point of over 260 °C.

As to `Cc1cccc(N2CCN(CCCCc3ccc(C4CCC(=O)N4)cc3)CC2)c1C` (stereo not drawn), the melting point fell in the range of 112 to 114 °C.

As to `O=C(c1ccc(Br)cc1)c1cc(Br)c(C(=O)c2ccc(Br)cc2)cc1Br`, the melting point is 254 to 256 °C.

A word on the melting point: it is the temperature, or range, at which the solid turns liquid.
